The numbers were not newly measured in patent US12396965B2, “Putrescine topical barrier formulation” (VIVIER CANADA INC., priority 2017, dated 2025), which cites them from elsewhere.

Data set [1] addresses fibroblast tissue transglutaminase (Homo sapiens, UniProt P21980). The conditions noted are these: in vitro and in vivo; topical; compared to controls.
In another data set the test system is epidermis of eroded skin. The conditions noted are these: animals and human, topical.

Sequence of fibroblast tissue transglutaminase (P21980 whole entry): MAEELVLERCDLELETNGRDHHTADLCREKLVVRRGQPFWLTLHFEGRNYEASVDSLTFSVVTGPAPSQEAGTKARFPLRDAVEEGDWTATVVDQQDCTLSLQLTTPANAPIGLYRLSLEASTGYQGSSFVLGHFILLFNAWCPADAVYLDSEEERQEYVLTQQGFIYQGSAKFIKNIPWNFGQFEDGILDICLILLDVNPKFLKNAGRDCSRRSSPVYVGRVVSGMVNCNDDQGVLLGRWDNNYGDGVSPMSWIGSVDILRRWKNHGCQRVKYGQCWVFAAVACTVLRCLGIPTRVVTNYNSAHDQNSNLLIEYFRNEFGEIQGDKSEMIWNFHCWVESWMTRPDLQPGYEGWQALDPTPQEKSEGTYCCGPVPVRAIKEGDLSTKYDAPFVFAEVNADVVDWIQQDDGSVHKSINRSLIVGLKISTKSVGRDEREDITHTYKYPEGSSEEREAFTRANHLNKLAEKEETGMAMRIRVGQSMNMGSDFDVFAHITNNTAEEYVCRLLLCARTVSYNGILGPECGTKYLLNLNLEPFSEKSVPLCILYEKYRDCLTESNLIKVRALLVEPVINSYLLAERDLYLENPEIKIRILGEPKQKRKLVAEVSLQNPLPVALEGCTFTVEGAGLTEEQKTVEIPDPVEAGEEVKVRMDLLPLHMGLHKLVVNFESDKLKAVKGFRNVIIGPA

As to `NCCCCN` [Putrescine, 1,4-diaminobutane], the collagen cross-linking result in data set [1] is recorded as “reduce collagen cross-linking”. Also, the “barrier function of the epidermis and thickness of the stratum lucidum / inner strata of human epidermis” value in the data set on epidermis of eroded skin was “increasing its barrier function as well as the thickness of the stratum lucidum”.
